According to US20240124469A1, “PIM KINASE INHIBITOR” (Hangzhou Biosun Pharmaceutical Co., Ltd., priority 2021, published 2024):
Like-named read-outs stand apart in the source and are kept apart here.

What was measured:
PIM1 = PIM1 (Homo sapiens (Human), UniProt P11309); assay: PIM1 kinase activity test (Mobility shift assay); type: biochemical
Protocol: (§1) The efficacy of the compounds on the activity of PIM1/2/3 was tested by utilizing the Mobility shift assay method, with the specific procedures shown as follows: the test compounds were each dissolved in DMSO to be prepared into a 10 mM stock solution; for each of the test compounds, the stock solution was subjected to a 3-fold dilution from an initial concentration of 10 μM to obtain 10 concentrations.
(§2) PIM1, PIM2, and PIM3 (all three kinases are from Carna) were each prepared with 1× Kinase buffer into a kinase solution at a concentration that was 2.5 times the final concentration. 10 μL of kinase solution at a concentration that was 2.5 times the final concentration was added to each of the compound wells and the positive control well, and 10 μL of 1× Kinase buffer was added to the negative control well. The plate was centrifuged at 1000 rpm for 30 s, mixed well by shaking, and then incubated at room temperature for 10 min. A mixed solution of ATP and Kinase substrate 20 (from GL) at a concentration that was 25/15 times the final concentration was prepared with 1× Kinase buffer. The reaction was started by adding 15 μL of the mixed solution of ATP and Kinase substrate 20 at a concentration that was 25/15 times the final concentration. The 384-well plate was centrifuged at 1000 rpm for 30 s, mixed well by shaking, and then incubated at room temperature for 60 min. 30 μL of stop assay buffer was added to stop the kinase reaction. The plate was centrifuged at 1000 rpm for 30 s and mixed well by shaking. The conversion rates were read using Caliper EZ Reader.
(§3) The IC50 values of the test compounds for kinase activity were obtained by adopting a fitted dose-response curve of analytic software GraphPad Prism 5.

PIM2 = PIM2 (Homo sapiens (Human), UniProt Q9P1W9); assay: PIM2 kinase activity test (Mobility shift assay); type: biochemical
Protocol: as §1, §2, §3

PIM3 = PIM3 (Homo sapiens (Human), UniProt Q86V86); assay: PIM3 kinase activity test (Mobility shift assay); type: biochemical
Protocol: as §1, §2, §3

Ba/F3-EPOR-JAK2-V617F = assay: Cell inhibitory activity test (72 h CTG); type: cell-based
Protocol: The EPOR-JAK2-V617F gene was transferred into Ba/F3 wild-type cells by a retrovirus packaging system to obtain a stably transfected cell line Ba/F3-EPOR-JAK2-V617F, which was used for the cell inhibitory activity ICso test of the compounds (reference: Blood. 2010; 115(15): 3109-3117). The specific procedures were as follows: • Cells were seeded in a 96-well plate, treated with the test compounds from DMSO stock solutions (final concentration of DMSO is 0.2%), and cultured at 37° C. with 5% CO2 for 72 h. Then, the cell proliferation inhibitory activity was assayed by the CTG (Cell-Titer Glo) method. For each of the test compounds, the stock solution was subjected to a 3-fold dilution from an initial concentration of 10 μM to obtain 9 concentrations. The dose-response relationship curve was fitted by using Graphpad 7.0 analysis software, and IC50 values were obtained.

Pharmacokinetic test = type: in vivo; conditions: BALB/c mice; for AUC(0-t) / clearance / half-life / Vd / Cmax / Tmax: female, mouse, plasma; for half-life: read-out: Terminal t1/2 (converted); for Vd: read-out: Vss
Protocol: Experimental animals: BALB/c mice, female; weight: 19-25 g.
Preparation of test sample: the target compound was prepared into solutions at 0.4 mg/mL (for intravenous administration) and 5.0 mg/mL (for oral administration) for later use. Route of administration: oral administration/intravenous injection. Dosing volume and frequency: 5 mL/kg (intravenous injection) or 10 mL/kg (oral administration), single dose.
Sample collection: blood was collected at the following time points: 5 min, 15 min, 30 min, 1 hr, 2 hr, 4 hr, 8 hr, and 24 hr after the administration.
Sample analysis: the collected samples were detected by using an LC-MS/MS method. The model of the instrument used was AB Sciex 5500.
Pharmacokinetic data analysis: the resulting plasma concentration data were fitted and calculated according to a non-compartmental model.

Chain of PIM2 (Q9P1W9 whole entry): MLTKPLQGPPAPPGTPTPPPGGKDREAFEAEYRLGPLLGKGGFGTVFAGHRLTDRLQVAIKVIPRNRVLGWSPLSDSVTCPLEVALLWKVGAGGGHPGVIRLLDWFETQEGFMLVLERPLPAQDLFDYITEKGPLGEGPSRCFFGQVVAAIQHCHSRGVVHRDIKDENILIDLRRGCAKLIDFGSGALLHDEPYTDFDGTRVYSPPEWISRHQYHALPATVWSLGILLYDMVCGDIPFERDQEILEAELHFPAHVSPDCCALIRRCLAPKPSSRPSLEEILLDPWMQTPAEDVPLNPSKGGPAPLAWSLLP
Chain of PIM1 (P11309 whole entry): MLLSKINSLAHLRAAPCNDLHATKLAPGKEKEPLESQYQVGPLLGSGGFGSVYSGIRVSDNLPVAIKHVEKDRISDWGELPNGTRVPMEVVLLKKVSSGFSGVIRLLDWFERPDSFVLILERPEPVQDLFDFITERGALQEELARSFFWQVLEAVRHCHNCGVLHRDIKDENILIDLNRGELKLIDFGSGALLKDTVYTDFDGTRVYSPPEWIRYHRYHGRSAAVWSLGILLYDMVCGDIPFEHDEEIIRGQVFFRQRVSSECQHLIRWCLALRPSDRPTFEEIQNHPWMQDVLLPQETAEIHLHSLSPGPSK

Row | IC50 (PIM1) [nM] | IC50 (PIM2) [nM] | IC50 (PIM3) [nM] | IC50 (Ba/F3-EPOR-JAK2-V617F) [nM] | F (Pharmacokinetic test; oral administration, 50 mg/kg) [%] | AUC(0-t) (Pharmacokinetic test; intravenous injection, 2 mg/kg) [ng·h/mL] | clearance (Pharmacokinetic test; intravenous injection, 2 mg/kg) [mL/min/kg] | half-life (Pharmacokinetic test; intravenous injection, 2 mg/kg) [h] | Vd (Pharmacokinetic test; intravenous injection, 2 mg/kg) [L/kg] | AUC(0-t) (Pharmacokinetic test; oral administration, 50 mg/kg) [ng·h/mL] | Cmax (Pharmacokinetic test; oral administration, 50 mg/kg) [ng/mL] | Tmax (Pharmacokinetic test; oral administration, 50 mg/kg) [h] | half-life (Pharmacokinetic test; oral administration, 50 mg/kg) [h] | Compound
1 | 2 to 10 | 100 to 1000 | 10 to 100 | > 150 | – | – | – | – | – | – | – | – | – | FC(F)(F)c1cccc(-c2cnc3ccc(NC4CC5(CCNCC5)C4)nn23)c1 [Compound 16, N-(7-azaspiro[3.5]nonan-2-yl)-3-[3-(trifluoromethyl)phenyl]imidazo[1,2-b]pyridazin-6-amine]
2 | < 2 | 100 to 1000 | 10 to 100 | < 50 | 66.6 | 1090 | 31 | 1.06 | 1.85 | 18100 | 3980 | 1.33 | 3.5 | CC(C)(O)[C@H]1CC[C@H](Nc2ccc3ncc(-c4ccc(C(F)(F)F)s4)n3n2)CC1 [Compound 20, 2-((1r,4r)-4-4-((3-(5-(trifluoromethyl)thiophen-2-yl)imidazo[1,2-b]pyridazin-6-yl)amino)cyclohexyl)propan-2-ol]
3 | < 2 | 100 to 1000 | 10 to 100 | 50 to 100 | – | – | – | – | – | – | – | – | – | FC(F)(F)c1ccc(-c2cnc3ccc(NC4CCCNCC4)nn23)s1 (stereo not shown) [Compound 28, N-(azepan-4-yl)-3-[5-(trifluoromethyl)-2-thienyl] imidazo[1,2-b] pyrid azin-6-amine]
4 | < 2 | 10 to 100 | 10 to 100 | < 50 | 35.7 | 859 | 39.7 | 0.42 | 1.38 | 7650 | 6670 | 0.33 | 1.41 | OC12CCC(Nc3ccc4ncc(-c5ccc(C(F)(F)F)s5)n4n3)(CC1)CC2 [Compound 29, 4-[[3-[5-(trefluoromethyl)-2-thienyl]imidazo[1,2-b]pyridazin-6-yl]amino]bicyclo [2.2.2] octan-1-ol]
5 | < 2 | 100 to 1000 | 10 to 100 | 50 to 100 | – | – | – | – | – | – | – | – | – | FC(F)(F)c1ccc(-c2cnc3ccc(NC4CC5(CCNCC5)C4)nn23)s1 [Compound 31, N-(7-azaspiro[3.5]nonan-2-yl)-3-[5-(trifluoromethyl)-2-thienyl]imidazo[1,2-b]pyridazin-6-amine]
6 | 2 to 10 | 1000 to 10000 | 100 to 1000 | 100 to 150 | 89.9 | 523 | 65.8 | 0.26 | 1.47 | 11800 | 10600 | 0.5 | 0.91 | OC[C@@H]1CC[C@@H](Nc2ccc3ncc(-c4ccc(C(F)(F)F)s4)n3n2)CO1 [Compound 46, [(2S,5R)-5-[[3-[5-(trifluoromethyl)-2-thienyl]imidazo[1,2-b]pyridazin-6-yl]amino]tetrahydropyran-2-yl]methanol]
7 | 10 to 100 | 100 to 1000 | 100 to 1000 | > 150 | 42.3 | 652 | 51.8 | 1.24 | 5.58 | 6800 | 2550 | 1 | 1.33 | CC(C)(O)[C@H]1CC[C@H](Nc2ccc3ncc(-c4cccc(C(F)(F)F)c4)n3n2)CC1 [TP-3654, reference compound]
